Assay results from US12521415B2, “Accelerating repair of mucosal injury using gold(III) compounds” (University of Kentucky Research Foundation, priority 2020, dated 2026).

Assays:
DSS colitis mice = experiment: DSS-induced colitis in mice treated with AuPhos; format: in vivo, mouse; details: for colonic ulceration (tissue histology): left colon
Experimental: FIG. 9A includes results for changes with 2% DSS given for 7 days followed by water. AuPhos was started (25 mg/kg q 3D) on DAY1. Body Wt changes shown as means of each group (n=6) with SEM for 9 and 13 day trials. FIG. 9B includes results for changes with 2% DSS given for 7 days followed by water. AuPhos was started (25 mg/kg q 3D) on DAY1. Body Wt changes shown as means of each group (n=6) with SEM for 9 and 13 day trials as shown, with corresponding DAI. FIG. 9C includes results for changes with 2% DSS given for 7 days followed by water. AuPhos was started (25 mg/kg q 3D) on DAY1. Histological score in DSS-colitis mice 7 and 13 days after DSS initation. Statistical significance was determined using 2-way ANOVA with Sidak's multiple comparison test (A,B) or unpaired t-test (C). FIG. 9D includes images showing results for changes with 2% DSS given for 7 days followed by water. AuPhos was started (25 mg/kg q 3D) on DAY1. Representative images of H&E staining of whole tissue scan from 13-day study. ★★<0.01, ★★★<0.0001.
FIG. 12A RT-qPCR analysis of cytokines and chemokine genes in AuPhos vs. controls at 9 and 13 days after DSS initiation. FIG. 12B RT-qPCR analysis of cytokines and chemokine genes in AuPhos vs. controls at 9 and 13 days after DSS initiation. FIG. 12C Quantitative RT-PCR analysis of inflammasome markers in D13 DSS mice. Statistical significance was determined using multiple t-test with Holm-Sidak's multiple method. FIG. 12D Serum IL-6 in AuPhos treated (n=4) and control mice, with or without anti-CD3 antibody. ★<0.05; ★★<0.01.
FIGS. 17A-17F illustrate that AuPhos improves DSS-induced colitis. Results shown are for changes with 2% DSS given for 7 days followed by water. AuPhos was started (25 mg/kg q3D) on DAY1. FIG. 17A. Body Wt changes shown as means of each group (n=6) with SEM for 15 day trial as shown, with FIG. 17B. corresponding DAI. FIG. 17C. Histological score in DSS-colitis mice after Day−7, −11, −13, and −15 of DSS initiation. Statistical significance was determined using 2-way ANOVA with Sidak's multiple comparison test (A,B) or unpaired t-test (C) FIG. 17D. Representative images of H&E staining of whole tissue scan from 13-day study. E. Effect of AuPhos on intestinal permeability using FITC-dextran in DSS-colitis mice (n=5) in a separate D7, D9, D11, D13 and D15 experiment. F. RT-qPCR analysis of cytokines and chemokines genes in AuPhos vs. vehicle treated DSS colitis mice from 9-day, 13-day and 15-day studies. ß<0.05, ßß<0.01, ßßß<0.0001.
Given the potential that AuPhos provides a novel approach to IBD therapy, DSS colitis mice were given (2% DSS×7D) 25 mg/kg i.g. AuPhos every 3 days (from the start of DSS) until sacrifice.
Findings in FIG. 9A-9D indicate that AuPhos attenuates tissue inflammation and enhances mucosal healing in DSS colitis mice. To interrogate the effects of AuPhos on Th1 and Treg cytokine production as well as chemokine and inflammasome mediators, mRNA from mice at time points indicated (as in FIG. 9A-9D). […] To test the question of whether AuPhos affected leukocytes directly, control and AuPhos-treated (25 mg/kg i.g. dosed every 3d×2) were injected with anti-CD3 mAb (antiTCR mAb). It is known that CD3 mAb induces a cytokine storm in the periphery and intestine.
The efficacy of AuPhos in the treatment of colitis. Given the potential that AuPhos provides a novel approach to IBD therapy, DSS colitis mice (2% DSS×7D) were given intragastric (i.g.) AuPhos (25 mg/kg) every 3 days (from the start of DSS) until sacrifice.

[1] = system: breast cancer (MDA-MB-231); experiment: Mitochondrial uptake of AuPhos by gold content (graphite furnace atomic absorption spectroscopy) in MDA-MB-231; format: cell-based; details: cancerous epithelial cells (MDA-MB-231)
Description: FIGS. 8A-8J present properties of AuPhos. FIG. 8A includes a chemical structure of AuPhos. FIG. 8B includes extrapolated AuPhos-induced OCR (complex I) in liver mitochondria. […] FIG. 8E provides weight change in AuPhos-treated mice over time. FIG. 8F presents stability of AuPhos in PBS and DMEM. FIG. 8G presents stability of AuPhos in PBS and DMEM. FIG. 8H includes an AuPhos-induced Heat map of DEG (left Panel), obtained using log 2(Fold Change) and p-Value <0.00001 thresholds in MDA-MB-231(107) cells (n=2), and the top six hits of KEGG analysis (right panel). FIG. 8I presents biodistribution and pharmacokinetics of AuPhos in different tissues; Colon, Small bowel, Lung, Kidney, Spleen, Liver, Heart and Blood after single dose (oral, 25 mg/kg) administration of AuPhos at 6 h, 12 h and 24 h. FIG. 8J presents biodistribution and pharmacokinetics of AuPhos in different tissues stool after single dose (oral, 25 mg/kg) administration of AuPhos at 6 h, 12 h and 24 h.
Changing the geometry and stabilizing ligands of gold compounds, such as the use of bidentate frameworks, promote different mitochondrial effects.

[2] = 2% DSS x7D, 25 mg/kg i.g. every 3 days, 9 and 13 day trials
[3] = 2% DSS x7D, 25 mg/kg i.g. every 3 days, 15 day trial
[4] = DSS colitis mice, 9 and 13 days after DSS initiation, RT-qPCR

Compound: [Cl][Au]1([c]2ccccc2Cc2ccccn2)[P](c2ccccc2)(c2ccccc2)c2ccccc2[P]1(c1ccccc1)c1ccccc1 [AuPhos]
- DAI (DSS colitis mice; [2]): significantly reduces
- weight (Wt) loss (DSS colitis mice; [2]): significantly reduces
- colonic ulceration (tissue histology) (DSS colitis mice; 2% DSS x7D, 25 mg/kg i.g. every 3 days, 13-day study): resolution of colonic ulceration throughout the left colon
- disease activity index (DAI) (DSS colitis mice; [3]): significantly reduces
- weight (Wt) loss (DSS colitis mice; [3]): significantly reduces
- tissue histologic indices (colitis score) (DSS colitis mice; 2% DSS x7D, 25 mg/kg i.g. every 3 days, at 13D): significant decreases
- tissue histology indices (colitis score) (DSS colitis mice; 2% DSS x7D, 25 mg/kg i.g. every 3 days, at D11, 13 and 15): significant decreases
- colonic ulceration (tissue histology) (DSS colitis mice; 15 day trial series): resolution of colonic ulceration throughout the left colon
- markers of inflammasome signaling mRNA (DSS colitis mice; D13 DSS mice, RT-PCR): reduces
- pro-inflammatory cytokine mRNA and chemokine-mediators of colitis (mucosal mRNA) (DSS colitis mice; DSS colitis mice, 9-day, 13-day and 15-day studies, RT-qPCR): reduces
- chemokine-mediators of colitis mRNA (MCP-1, I-TAC and IP-10) (DSS colitis mice; [4]): reduces
- pro-inflammatory cytokine mRNA (IFNγ, TNF, IL-6 and IL-10) (DSS colitis mice; [4]): reduces
- acute colitis (DSS colitis mice; DSS mice): attenuates acute colitis
- mitochondrial localization (gold content) [1]: localizes in the mitochondria
